# Assay results from patent US20160355530A1, “HEPATITIS C INHIBITORS AND USES THEREOF” (AbbVie Inc., priority 2010, published 2016).
# pEC50, pIC50: −log10 of the molar value. Read-outs that look alike come from different tables or passages of the source.
# How the values were obtained:
# [1] = biological target: T1, HCV NS5B polymerase 1b BK strain (Hepatitis C virus genotype 1b, UniProt P26663); experiment: HCV NS5B polymerase enzymatic inhibition assay, strain 1b BK; assay type: biochemical; conditions: enzyme, strain 1b BK; read-out: HCV Polymerase Strain 1b BK IC50
# T1 construct: six-histidine tag; made in house; host or cells: E. coli
# T1 sequence (P26663 2420-2989): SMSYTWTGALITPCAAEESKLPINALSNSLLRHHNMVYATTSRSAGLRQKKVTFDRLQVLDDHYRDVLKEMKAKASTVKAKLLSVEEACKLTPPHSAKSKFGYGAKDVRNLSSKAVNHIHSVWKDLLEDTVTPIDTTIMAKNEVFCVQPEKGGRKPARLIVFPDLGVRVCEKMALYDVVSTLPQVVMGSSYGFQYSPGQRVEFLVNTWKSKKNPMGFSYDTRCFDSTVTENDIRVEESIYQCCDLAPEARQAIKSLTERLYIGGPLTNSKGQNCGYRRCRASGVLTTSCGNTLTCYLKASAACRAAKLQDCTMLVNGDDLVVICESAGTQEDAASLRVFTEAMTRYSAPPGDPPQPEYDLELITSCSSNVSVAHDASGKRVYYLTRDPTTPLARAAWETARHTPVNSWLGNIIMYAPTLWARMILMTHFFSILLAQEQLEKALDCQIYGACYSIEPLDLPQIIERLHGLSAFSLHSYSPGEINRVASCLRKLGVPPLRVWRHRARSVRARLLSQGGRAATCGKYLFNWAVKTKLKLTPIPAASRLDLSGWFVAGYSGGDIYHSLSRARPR
# Method in brief: (§1)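 Recombinant NS5B (residues 1–570, His-tagged, E. coli-expressed) copied 5 nM of a 2.1 kb HCV 1b negative-strand 3′-end RNA template with 20 μM CTP, 20 μM ATP and 0.284 μM [3H]UTP for 3 h at 30 °C. Spermine-precipitated RNA was filter-captured and counted, and IC50 was fitted by nonlinear regression.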
# [2] = system: chimeric replicon with genotype 4a NS5B; experiment: microbe, parasite or virus in culture; assay type: cell-based, HCV genotype 4a; conditions: Hepatitis C virus, read-out: 4a chimera 5% FBS EC50
# [3] = system: chimeric replicon with genotype 2b NS5B; experiment: microbe, parasite or virus in culture; assay type: cell-based, HCV genotype 2b; conditions: Hepatitis C virus, read-out: 2b chimera 5% FBS EC50
# [4] = system: HCV 1a-H77-C316Y transient subgenomic replicon in Huh-7 derived cell line; experiment: microbe, parasite or virus in culture; assay type: cell-based, HCV genotype 1a; conditions: for pEC50: Hepatitis C virus, Huh-7, read-out: Transient Replicon 1a H77-C316Y 5% FBS EC50; for Transient Replicon Fold Resistance C316Y/1a: ratio of transient replicon EC50s, C316Y / 1a H77
# Method in brief: (§2)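 Transient format: T7-transcribed replicon RNA lacking Neo, electroporated into Huh-7-derived cells (5×10^3/well), input RNA checked by luciferase at 4 h. Three-fold compound dilution series, 0.5% DMSO, 4 days at 37° C; EC50 from luciferase signal in lysed cells.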
# [5] = system: HCV 1a-H77 transient subgenomic replicon in Huh-7 derived cell line; experiment: microbe, parasite or virus in culture; assay type: cell-based, HCV genotype 1a; conditions: Hepatitis C virus, Huh-7; transient replicon, 5% FBS; read-out: Transient Replicon 1a H77 5% FBS EC50
# Method in brief: as §2
# [6] = system: chimeric replicon with 2a-J6CF-derived NS5B; experiment: microbe, parasite or virus in culture; assay type: cell-based, HCV genotype 2a; conditions: Hepatitis C virus, read-out: 2a chimera 5% FBS EC50
# [7] = system: HCV 1b-BB7 subgenomic replicon; experiment: microbe, parasite or virus in culture; assay type: cell-based, HCV genotype 1b; conditions: Hepatitis C virus, stable replicon
# [8] = biological target: T2, HCV NS5B polymerase 1a-H77 (Hepatitis C virus genotype 1a, UniProt P27958); experiment: biochemical; parameters: species or system HCV genotype 1a; conditions: enzyme, strain 1a H77; read-out: HCV Polymerase Strain 1a H77 IC50
# T2 construct: six-histidine tag; made in house; host or cells: E. coli
# T2 sequence (P27958 2421-2990): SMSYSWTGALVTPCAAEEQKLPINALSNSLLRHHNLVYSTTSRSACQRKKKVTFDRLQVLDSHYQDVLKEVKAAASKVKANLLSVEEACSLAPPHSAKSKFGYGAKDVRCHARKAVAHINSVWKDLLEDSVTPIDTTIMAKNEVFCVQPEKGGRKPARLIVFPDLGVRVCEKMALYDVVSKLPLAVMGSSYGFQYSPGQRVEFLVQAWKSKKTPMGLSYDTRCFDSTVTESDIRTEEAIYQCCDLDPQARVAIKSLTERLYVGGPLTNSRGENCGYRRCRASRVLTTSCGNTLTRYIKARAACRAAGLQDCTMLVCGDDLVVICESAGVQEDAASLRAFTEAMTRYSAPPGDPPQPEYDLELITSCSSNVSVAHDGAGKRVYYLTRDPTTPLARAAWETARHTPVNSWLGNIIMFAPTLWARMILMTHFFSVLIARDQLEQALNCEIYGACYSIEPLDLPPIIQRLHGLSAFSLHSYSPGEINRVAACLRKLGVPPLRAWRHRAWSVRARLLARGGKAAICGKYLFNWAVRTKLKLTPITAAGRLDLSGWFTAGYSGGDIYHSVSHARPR
# Method in brief: as §1
# [9] = biological target: T3, HCV NS5B polymerase 1a-H77-C316Y (Hepatitis C virus genotype 1a, UniProt P27958, C2736Y); experiment: biochemical; parameters: species or system HCV genotype 1a
# T3 construct: six-histidine tag; made in house; host or cells: E. coli
# T3 sequence (P27958 2421-2990 C2736Y): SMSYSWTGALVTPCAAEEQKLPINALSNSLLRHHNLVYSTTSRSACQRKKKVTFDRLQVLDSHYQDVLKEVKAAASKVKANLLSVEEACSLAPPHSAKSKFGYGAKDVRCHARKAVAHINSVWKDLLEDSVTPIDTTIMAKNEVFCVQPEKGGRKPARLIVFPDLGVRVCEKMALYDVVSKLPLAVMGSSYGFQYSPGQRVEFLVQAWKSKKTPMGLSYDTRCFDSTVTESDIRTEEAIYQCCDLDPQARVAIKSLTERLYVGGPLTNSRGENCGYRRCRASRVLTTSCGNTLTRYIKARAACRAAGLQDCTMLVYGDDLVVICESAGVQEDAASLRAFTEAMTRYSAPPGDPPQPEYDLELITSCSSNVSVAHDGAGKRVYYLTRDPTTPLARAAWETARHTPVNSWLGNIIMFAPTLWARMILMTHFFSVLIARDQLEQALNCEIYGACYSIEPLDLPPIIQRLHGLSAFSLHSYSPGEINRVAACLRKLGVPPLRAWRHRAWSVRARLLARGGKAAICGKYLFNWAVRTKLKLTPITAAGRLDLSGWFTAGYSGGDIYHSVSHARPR
# Method in brief: as §1
# [10] = system: HCV NS5B polymerase 1a-H77-C316Y; experiment: biochemical; parameters: species or system HCV genotype 1a; conditions: ratio of enzyme IC50s, 1a H77-C316Y / 1a H77
# Method in brief: as §1
# [11] = system: chimeric replicon with genotype 3a NS5B; experiment: microbe, parasite or virus in culture; assay type: cell-based, HCV genotype 3a; conditions: Hepatitis C virus, read-out: 3a chimera 5% FBS EC50
# [12] = system: HCV 1a-H77 subgenomic replicon; experiment: microbe, parasite or virus in culture; assay type: cell-based, HCV genotype 1a; conditions: Hepatitis C virus, stable replicon
# [13] = strain 1b BB7, 5% FBS + 40% human plasma, read-out: 1b BB7 5% FBS + 40% Human Plasma EC50
# [14] = strain 1b BB7, 5% FBS, no human plasma, read-out: 1b BB7 5% FBS EC50
# [15] = strain 1b BB7, 5% FBS, read-out: 1b BB7 5% FBS EC50
# [16] = 5% FBS, absence of human plasma, read-out: Stable Replicon 1a H77 5% FBS EC50
# [17] = strain 1a H77, 5% FBS + 40% human plasma, read-out: 1a H77 5% FBS + 40% Human Plasma EC50
# [18] = strain 1a H77, 5% FBS, no human plasma, read-out: 1a H77 5% FBS EC50
# [19] = strain 1a H77, 5% FBS, read-out: 1a H77 5% FBS EC50
Structure (SMILES),pIC50 [1],pEC50 [2],pEC50 [3],pEC50 [4],Transient Replicon Fold Resistance C316Y/1a [4] [fold],pEC50 [5],pEC50 [6],"pEC50 [7, 13]","pEC50 [7, 14]","pEC50 [7, 15]",pIC50 [8],pIC50 [9],C316Y/1a Fold Resistance [10] [fold],pEC50 [11],"pEC50 [12, 16]","pEC50 [12, 17]","pEC50 [12, 18]","pEC50 [12, 19]"
"CS(=O)(=O)CCN(c1cc2oc(-c3ccc(F)cc3)c(-c3ncc[nH]3)c2cc1C1CC1)S(C)(=O)=O [Example 87, N-[5-cyclopropyl-2-(4-fluorophenyl)-3-(1H-imidazol-2-yl)-1-benzofuran-6-yl]-N-[2-(methylsulfonyl)ethyl]methanesulfonamide]",7.64,7.32,7.07,6.81,25,8.21,7.19,7.24,8.31,8.31,8.22,6.81,26,8.49,8.12,7.19,8.12,8.12
"CS(=O)(=O)N(CCCCCO)c1cc2oc(-c3ccc(F)cc3)c(-c3ncc[nH]3)c2cc1C1CC1 [Example 88, N-[5-cyclopropyl-2-(4-fluorophenyl)-3-(1H-imidazol-2-yl)-1-benzofuran-6-yl]-N-(5-hydroxypentyl)methanesulfonamide]",8.05,7.47,7.61,7.42,32,8.92,7.60,6.97,8.31,8.31,8.40,7.34,12,8.49,8.39,6.92,8.39,8.39
"CS(=O)(=O)N(CCCS(=O)(=O)c1ccccc1)c1cc2oc(-c3ccc(F)cc3)c(-c3ncc[nH]3)c2cc1C1CC1 [Example 90, N-[5-cyclopropyl-2-(4-fluorophenyl)-3-(1H-imidazol-2-yl)-1-benzofuran-6-yl]-N-[3-(phenylsulfonyl)propyl]methanesulfonamide]",8.00,7.56,7.17,7.18,24,8.57,7.32,7.32,8.22,8.22,8.46,7.38,12,7.89,7.99,7.03,7.99,7.99
"CS(=O)(=O)N(CCCCC(N)=O)c1cc2oc(-c3ccc(F)cc3)c(-c3ncc[nH]3)c2cc1C1CC1 [Example 91, 5-{[5-cyclopropyl-2-(4-fluorophenyl)-3-(1H-imidazol-2-yl)-1-benzofuran-6-yl](methylsulfonyl)amino}pentanamide]",7.59,7.05,7.00,6.92,22,8.25,7.07,7.47,8.31,8.31,8.28,7.10,15,8.10,8.20,7.49,8.20,8.20
"CS(=O)(=O)N(CCCCC(=O)O)c1cc2oc(-c3ccc(F)cc3)c(-c3ncc[nH]3)c2cc1C1CC1 [Example 92, 5-{[5-cyclopropyl-2-(4-fluorophenyl)-3-(1H-imidazol-2-yl)-1-benzofuran-6-yl](methylsulfonyl)amino}pentanoic acid]",8.22,6.55,6.45,6.32,25,7.71,6.39,6.85,7.59,7.59,8.31,7.37,9,7.37,7.67,6.76,7.67,7.67
"CCS(=O)(=O)CCN(c1cc2oc(-c3ccc(F)cc3)c(-c3ncc[nH]3)c2cc1C1CC1)S(C)(=O)=O [Example 96, N-[5-cyclopropyl-2-(4-fluorophenyl)-3-(1H-imidazol-2-yl)-1-benzofuran-6-yl]-N-[2-(ethylsulfonyl)ethyl]methanesulfonamide]",7.47,7.38,6.90,7.09,73,8.96,7.36,7.43,8.40,8.40,8.05,7.24,6,8.23,8.20,7.24,8.21,8.20
"CC(C)(O)CCCN(c1cc2oc(-c3ccc(F)cc3)c(-c3ncc[nH]3)c2cc1C1CC1)S(C)(=O)=O [Example 99, N-[5-cyclopropyl-2-(4-fluorophenyl)-3-(1H-imidazol-2-yl)-1-benzofuran-6-yl]-N-(4-hydroxy-4-methylpentyl)methanesulfonamide]",7.96,7.50,7.76,7.07,11,8.12,7.53,6.98,8.27,8.27,8.35,7.24,13,8.42,8.11,6.90,8.11,8.11
"CC(O)CCCN(c1cc2oc(-c3ccc(F)cc3)c(-c3ncc[nH]3)c2cc1C1CC1)S(C)(=O)=O (stereo not drawn) [Example 100, N-[5-cyclopropyl-2-(4-fluorophenyl)-3-(1H-imidazol-2-yl)-1-benzofuran-6-yl]-N-(4-hydroxypentyl)methanesulfonamide]",8.10,7.67,7.79,7.05,21,8.38,7.70,7.24,8.47,8.47,8.46,7.28,15,8.51,8.22,7.06,8.22,8.22
"CS(=O)(=O)CCCN(c1cc2oc(-c3ccc(F)cc3)c(-c3ncc[nH]3)c2cc1C1CC1)S(C)(=O)=O [Example 101, N-[5-cyclopropyl-2-(4-fluorophenyl)-3-(1H-imidazol-2-yl)-1-benzofuran-6-yl]-N-[3-(methylsulfonyl)propyl]methanesulfonamide]",7.96,7.25,7.48,6.99,28,8.43,7.48,7.12,8.23,8.23,8.30,7.34,9,8.37,8.39,6.96,8.39,8.39
